According to PubChem BioAssay (NCI):
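Growth conditions: 96-well plates. Treatment: test compound, 48 hours, 5 concentrations. Analysis: linear interpolation between bracketing concentrations; unreached endpoints set to highest concentration. Definition used: TGI = concentration required for complete inhibition of growth.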

What was measured:
Test in all cases: NCI anticancer screen, dose series, 48 h
ACHN renal = system: ACHN renal
BT-549 breast = system: BT-549 breast
DU-145 prostate = system: DU-145 prostate
HCT-15 colon = system: HCT-15 colon
KM12 colon = system: KM12 colon
MDA-MB-435 = system: MDA-MB-435
NCI-H226 lung = system: NCI-H226 lung
NCI-H460 lung = system: NCI-H460 lung
OVCAR-3 ovarian = system: OVCAR-3 ovarian
PC-3 prostate = system: PC-3 prostate
RXF 393 renal = system: RXF 393 renal
SK-MEL-28 melanoma = system: SK-MEL-28 melanoma
SK-OV-3 ovarian = system: SK-OV-3 ovarian
SNB-19 CNS = system: SNB-19 CNS
SR leukemia = system: SR leukemia
U251 CNS = system: U251 CNS
UACC-257 melanoma = system: UACC-257 melanoma
UACC-62 melanoma = system: UACC-62 melanoma
EKVX NSCLC = system: EKVX NSCLC

SMILES | TGI (ACHN renal) | TGI (BT-549 breast) | TGI (DU-145 prostate) | TGI (HCT-15 colon) | TGI (KM12 colon) | TGI (MDA-MB-435) | TGI (NCI-H226 lung) | TGI (NCI-H460 lung) | TGI (OVCAR-3 ovarian) | TGI (PC-3 prostate) | TGI (RXF 393 renal) | TGI (SK-MEL-28 melanoma) | TGI (SK-OV-3 ovarian) | TGI (SNB-19 CNS) | TGI (SR leukemia) | TGI (U251 CNS) | TGI (UACC-257 melanoma) | TGI (UACC-62 melanoma) | TGI (EKVX NSCLC)
CC(=O)C1C(=O)C(C(C)=O)C2C3C=CC(C3)C12 (stereo not given) | > 100 µM | > 100 µM | > 100 µM | > 100 µM | > 100 µM | > 100 µM | > 100 µM | > 100 µM | > 100 µM | > 100 µM | > 100 µM | > 100 µM | > 100 µM | > 100 µM | > 100 µM | > 100 µM | > 100 µM | > 100 µM | –
COCN1C(=N)C(C(=O)OC(C)(C)C)=C2C=C(O)C=CC21C (stereo not given) | 19.6 µM | 12.8 µM | 24.2 µM | 27.5 µM | 30.5 µM | 27.4 µM | 30.6 µM | 44.9 µM | – | 30.6 µM | 19.3 µM | 36.3 µM | 84 µM | > 100 µM | > 100 µM | 30.6 µM | 22.5 µM | 29.1 µM | 37.9 µM
Cc1ccc2nc(CN(CCO)CCO)cc(=O)n2c1 | > 100 µM | > 100 µM | > 100 µM | > 100 µM | > 100 µM | > 100 µM | > 100 µM | > 100 µM | > 100 µM | > 100 µM | – | > 100 µM | > 100 µM | > 100 µM | > 100 µM | > 100 µM | > 100 µM | > 100 µM | > 100 µM
COc1ccc(NC(=O)C(C#N)=C(SC)SC)cc1 | > 100 µM | > 100 µM | > 100 µM | > 100 µM | – | > 100 µM | > 100 µM | > 100 µM | > 100 µM | > 100 µM | > 100 µM | > 100 µM | > 100 µM | > 100 µM | > 100 µM | > 100 µM | > 100 µM | > 100 µM | > 100 µM
CC(C)=NOC(=O)OC[C@H]1O[C@@H](n2cnc3c(N)ncnc32)C(O)C1O (stereo not given in full) | > 100 µM | > 100 µM | > 100 µM | > 100 µM | > 100 µM | > 100 µM | > 100 µM | > 100 µM | > 100 µM | > 100 µM | > 100 µM | > 100 µM | > 100 µM | > 100 µM | > 100 µM | > 100 µM | – | – | > 100 µM
O=C1CCCCCCCCCCC1CN1CCOCC1 (stereo not given) | > 100 µM | > 100 µM | > 100 µM | > 100 µM | > 100 µM | > 100 µM | > 100 µM | – | > 100 µM | > 100 µM | > 100 µM | > 100 µM | > 100 µM | > 100 µM | > 100 µM | > 100 µM | > 100 µM | > 100 µM | > 100 µM
Cc1nn(C(=O)Cc2ccccc2)c2c1C(c1ccc([N+](=O)[O-])cc1)SC(N)=N2 (stereo not given) | > 100 µM | > 100 µM | > 100 µM | > 100 µM | > 100 µM | > 100 µM | – | > 100 µM | – | > 100 µM | – | > 100 µM | > 100 µM | – | > 100 µM | – | > 100 µM | > 100 µM | > 100 µM
CCOC(=O)/C(=C\c1cn(C(C)=O)c2ccccc12)P(C)(=O)OCC (stereo not given) | > 100 µM | 61.3 µM | > 100 µM | > 100 µM | > 100 µM | > 100 µM | – | – | > 100 µM | > 100 µM | – | > 100 µM | 66.1 µM | > 100 µM | > 100 µM | > 100 µM | – | > 100 µM | > 100 µM
O=C(Nc1ccccc1)c1cc(S(=O)(=O)N2CCNC2=O)c(S)cc1Cl | > 100 µM | > 100 µM | > 100 µM | > 100 µM | > 100 µM | > 100 µM | – | > 100 µM | > 100 µM | > 100 µM | > 100 µM | > 100 µM | > 100 µM | > 100 µM | > 100 µM | > 100 µM | > 100 µM | > 100 µM | > 100 µM
OCC(O)COCn1cc(Cn2ncc3c(NCc4ccccc4)ncnc32)nn1 (stereo not given) | > 100 µM | > 100 µM | > 100 µM | > 100 µM | > 100 µM | > 100 µM | > 100 µM | – | > 100 µM | > 100 µM | – | > 100 µM | > 100 µM | > 100 µM | > 100 µM | > 100 µM | > 100 µM | > 100 µM | > 100 µM
CCO[C@H]1O[C@@H]2OC3(C)CCC4[C@H](C)CCC([C@H]1C)[C@]42OO3 (stereo not given in full) | > 100 µM | > 100 µM | > 100 µM | > 100 µM | > 100 µM | > 100 µM | > 100 µM | > 100 µM | 99.8 µM | > 100 µM | > 100 µM | > 100 µM | > 100 µM | > 100 µM | > 100 µM | > 100 µM | – | > 100 µM | > 100 µM
[N-]=[N+]=Nc1c(-c2ccccc2)c(=O)n(-c2ccccc2)c2ccccc12 | > 100 µM | > 100 µM | > 100 µM | > 100 µM | > 100 µM | > 100 µM | > 100 µM | > 100 µM | > 100 µM | > 100 µM | > 100 µM | > 100 µM | > 100 µM | – | > 100 µM | > 100 µM | > 100 µM | > 100 µM | 48.8 µM
COC(=O)/C=C\C(C#N)(C#N)N=Cc1cccs1 | 4.12 µM | 19.9 µM | 24.3 µM | 5.69 µM | 37.8 µM | 18 µM | 20.7 µM | 39.7 µM | 25.1 µM | 26 µM | 5.51 µM | 26 µM | 42.3 µM | > 56.5 µM | – | > 53.3 µM | 27.6 µM | 25.4 µM | 25.2 µM
